Measurements reported in PMC4359714 (Naunyn-Schmiedeberg's Archives of Pharmacology, 2015).
pIC50: −log10 of the molar value.

How the values were obtained:
rat TRPV3 = target: T1, rat TRPV3 (Rattus norvegicus, UniProt Q4QYD9); assay: Luminescence (aequorin) readout of intracellular calcium, CHO cells expressing rat TRPV3, 2-APB activation; assay type: cell-based; conditions: 200 uM 2-APB, read-out: rTRPV3 IC50
T1 construct: expressed in transfected cells; host or cells: CHO, T-REx tetracycline-inducible system (Invitrogen), co-transfected with aequorin
T1 sequence (Q4QYD9 1-791): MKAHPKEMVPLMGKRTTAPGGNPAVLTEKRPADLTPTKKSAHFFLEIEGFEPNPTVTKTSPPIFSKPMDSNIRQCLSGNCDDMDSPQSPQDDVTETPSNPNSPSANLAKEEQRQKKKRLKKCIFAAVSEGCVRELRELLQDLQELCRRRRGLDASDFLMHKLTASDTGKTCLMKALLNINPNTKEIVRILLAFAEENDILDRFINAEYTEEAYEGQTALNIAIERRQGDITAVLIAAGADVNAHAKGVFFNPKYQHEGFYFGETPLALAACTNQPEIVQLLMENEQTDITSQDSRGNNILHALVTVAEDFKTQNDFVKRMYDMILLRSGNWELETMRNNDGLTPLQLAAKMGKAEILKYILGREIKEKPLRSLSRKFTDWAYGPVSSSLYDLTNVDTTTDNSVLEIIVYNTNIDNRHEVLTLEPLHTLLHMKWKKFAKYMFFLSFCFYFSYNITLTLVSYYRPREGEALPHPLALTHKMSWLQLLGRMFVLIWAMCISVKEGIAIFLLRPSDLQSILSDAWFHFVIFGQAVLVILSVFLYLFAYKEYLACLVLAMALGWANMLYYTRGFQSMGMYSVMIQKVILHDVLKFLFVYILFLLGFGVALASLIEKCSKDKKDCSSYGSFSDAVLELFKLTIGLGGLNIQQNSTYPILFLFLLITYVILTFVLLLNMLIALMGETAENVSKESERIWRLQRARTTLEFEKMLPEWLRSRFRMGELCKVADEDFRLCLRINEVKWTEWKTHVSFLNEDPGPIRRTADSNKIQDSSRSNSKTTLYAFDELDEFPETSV
Description: Stable Chinese hamster ovary (CHO) cell lines expressing rat TRPA1, rat TRPM8, rat TRPV3, and human TRPV4 were generated using the tetracycline-inducible T-REx™ expression system from Invitrogen (Carlsbad, CA) and a stable CHO cell line expressing rat TRPV1 was generated using a constitutive expression system (Klionsky et al. [2007]). To enable a luminescence readout based on intracellular increase in calcium (Le Poul et al. [2002]), each cell line was also co-transfected with pcDNA3.1 plasmid containing jelly fish aequorin cDNA. Twenty-four hours before the assay, cells were seeded in 96-well plates and all TRP channel expression, except for TRPV1, was induced with 0.5 ug/mL tetracycline. […] Luminescence was measured by a CCD camera-based FLASH-luminometer built by Amgen, Inc. The following agonists were used to activate TRP channels: 0.5 uM capsaicin for TRPV1, 80 uM allyl isothiocyanate (AITC) for TRPA1, 1 uM icilin or cold buffer (12 °C) for TRPM8, 200 uM aminoethoxydiphenyl borate (2-APB) for TRPV3, and 1 uM 4α-phorbol 12,13-didecanoate (4α-PDD) for TRPV4. Antagonist IC50 values were calculated using GraphPad Prism 4.01 (GraphPad Software Inc, San Diego, CA).

SNL rats = assay: SNL-induced tactile allodynia (von Frey, up-down method); assay type: in vivo, rat; conditions: 100 mg/kg p.o.; p > 0.05 vs vehicle (4.4 ± 1.2 g)
Experimental: SNL surgery was performed using aseptic surgical techniques and a stereomicroscope (Kim and Chung [1992]). Spinal nerve injury was caused by ligating the left L5 and L6 spinal nerves, with special care to avoid damage to the L4 spinal nerve or surrounding area. More specifically, under gaseous anesthesia with a mixture of O2 and isoflurane (3 % for induction and 2 % for maintenance), skin was excised and the longissimus lumborum muscle, part of articular processes (L4-S1), and the fascia above L6 spinal nerve were carefully removed. […]
Behavioral testing Two weeks post surgery, mechanical sensitivity was measured by determining the median 50 % foot withdrawal threshold for von Frey filaments using the up-down method (Chaplan et al. [1994]). […] To avoid possible reflex responses, only abrupt withdrawal of the foot accompanied by pain indicative behaviors (namely paw flinching, shaking, or licking for more than 2 s) was recorded as a response. […]
In vivo IC50 and IC90 estimates using WDS model data were determined by fitting a sigmoidal dose-response curve to individual animal number of WDS versus resulting plasma concentration. Behavioral and electrophysiological data are expressed as mean ± standard error of the mean (S.E.M.). Results were analyzed using one-way analysis of variance (ANOVA) with Dunnett’s multiple-comparisons post-hoc test for significance relative to vehicle. […]

pIC50 (rat TRPV3): < 4.60
Compound: C[C@H](NC(=O)N1CCc2cccnc2[C@H]1c1ccc(C(F)(F)F)cc1)C(F)(F)F [AMG2850, (R)-8-(4-(trifluoromethyl)phenyl)-N-((S)-1,1,1-trifluoropropan-2-yl)-5,6-dihydro-1,7-naphthyridine-7(8H)-carboxamide]
tactile threshold (von Frey), SNL model (SNL rats): 5.8 ± 1.3 g
